Measured values as given in US20220226321A1, “INHIBITOR OF MNK FOR THE TREATMENT OF NEUROPATHIC PAIN” (Board of Regents, The University of Texas System, priority 2019, published 2022).

System: Nav1.8-positive nociceptors
Type: in vivo, mouse
Conditions: Nav1.8-TRAP after paclitaxel

## CC(=O)O[C@H]1C(=O)[C@@]2(C)[C@H]([C@H](OC(=O)c3ccccc3)[C@]3(O)C[C@H](OC(=O)[C@H](O)[C@@H](NC(=O)c4ccccc4)c4ccccc4)C(C)=C1C3(C)C)[C@]1(OC(C)=O)CO[C@@H]1C[C@@H]2O [paclitaxel]
  Log2FC 0st4: 1.718
  Log2FC 2010107E04Rik: 2.12
  Log2FC 2310039H08Rik: 5.143
  Log2FC 2700094K13R1k: 3.302
  Log2FC 4833439L19R1k: 2.132
  Log2FC Aars2: 2.418
  Log2FC Acadvl: 1.927
  Log2FC Acap3: 3.498
  Log2FC Acp1: 1.942
  Log2FC Adamts8: 3.561
  Log2FC Adcy6: 2.711
  Log2FC Alkbh3: 6.476
  Log2FC Amacr: 2.955
  Log2FC Amd1: 3.371
  Log2FC Amer2: 2.706
  Log2FC Anapc13: 3.575
  Log2FC AngptI2: 2.189
  Log2FC Ankrd13b: 2.385
  Log2FC Anxa5: 1.873
  Log2FC Ap2m1: 1.802
  Log2FC Apip: 3.746
  Log2FC Arl3: 1.891
  Log2FC Arl6: 2.816
  Log2FC Arpc1b: 2.309
  Log2FC Asna1: 2.939
  Log2FC Atg4c: 2.347
  Log2FC Atp5c1: 2.208
  Log2FC Atp5j2: 1.988
  Log2FC Avpi1: 2.241
  Log2FC Bcl3: 1.89
  Log2FC Bloc1s1: 1.944
  Log2FC Btbd2: 1.76
  Log2FC C77080: 2.169
  Log2FC Calca: 1.643
  Log2FC Camk1: 1.856
  Log2FC Caml: 1.865
  Log2FC Card19: 1.753
  Log2FC Casp6: 5.72
  Log2FC Ccm2: 1.643
  Log2FC Cct3: 1.638
  Log2FC Cd1d1: 3.345
  Log2FC Cdc42ep3: 3.249
  Log2FC Cdpf1: 1.815
  Log2FC Cenpf: 2.902
  Log2FC Cfap206: 3.055
  Log2FC Cfd: 2.201
  Log2FC Chchd10: 3.153
  Log2FC Chp1: 1.916
  Log2FC Cisd2: 2.375
  Log2FC Cln5: 3.447
  Log2FC Cnih4: 1.926
  Log2FC Cnrip1: 2.136
  Log2FC Cntfr: 2.495
  Log2FC Coq3: 4.105
  Log2FC Cox6b1: 1.818
  Log2FC Cox7a2: 2.17
  Log2FC Cox7b: 2.566
  Log2FC Cox18: 2.806
  Log2FC Crlf2: 3.214
  Log2FC DIg2: 2.734
  Log2FC Dad1: 2.457
  Log2FC Ddt: 1.823
  Log2FC Ddx59: 3.577
  Log2FC Dhrs1: 1.833
  Log2FC Dnajb1: 1.888
  Log2FC Dnajc5: 1.672
  Log2FC Dnal4: 3.156
  Log2FC Dolk: 3.023
  Log2FC Dpm3: 2.927
  Log2FC Dzank1: 2.226
  Log2FC Edfl: 2.362
  Log2FC Efccl: 3.201
  Log2FC Eif3l: 1.622
  Log2FC Eif4a3: 2.269
  Log2FC Elk4: 1.928
  Log2FC Emd: 2.135
  Log2FC Endov: 2.652
  Log2FC Esd: 1.658
  Log2FC Esyt1: 3.657
  Log2FC Fabp7: 2.365
  Log2FC Fads3: 2.619
  Log2FC Fam89a: 3.216
  Log2FC Fam132a: 3.453
  Log2FC Fam172a: 2.094
  Log2FC Fam189b: 1.8
  Log2FC Fbxo2: 2.965
  Log2FC Fkbp1b: 1.714
  Log2FC Fm43b: 4.132
  Log2FC Fsd1: 3.044
  Log2FC Fxyd2: 1.653
  Log2FC Gdf1: 2.419
  Log2FC Gla: 1.793
  Log2FC Gm20721: 2.093
  Log2FC Gmppa: 2.033
  Log2FC Gpr75: 3.81
  Log2FC Gstm1: 3.155
  Log2FC H2-T23: 3.904
  Log2FC H2afj: 2.76
  Log2FC H2afz: 1.717
  Log2FC Hagh: 3.067
  Log2FC Hhatl: 3.915
  Log2FC Hist3h2ba: 2.223
  Log2FC Hspa8: 1.666
  Log2FC Idh3b: 1.905
  Log2FC Ift122: 2.378
  Log2FC Igtp: 2.41
  Log2FC Kcnip2: 2.308
  Log2FC Kcnip4: 1.68
  Log2FC Krt28: 5.481
  Log2FC L3mbt12: 1.691
  Log2FC Lamtor5: 1.975
  Log2FC Lcmt1: 1.712
  Log2FC Lingo2: 2.247
  Log2FC Litaf: 2.888
  Log2FC Lrrc55: 5.433
  Log2FC Lxn: 2.119
  Log2FC Lyrm2: 2.832
  Log2FC M pl36: 2.805
  Log2FC Mok: 7.257
  Log2FC Mpp4: 3.465
  Log2FC Mpv17: 1.73
  Log2FC Mrpl18: 1.683
  Log2FC Mrpl34: 2.378
  Log2FC Mrpl42: 1.785
  Log2FC Mrps36: 2.585
  Log2FC Mtor: 1.973
